Assays:
KLN = experiment: Cell growth assay (sulforhodamine B), KLN cells; type: cell-based, mouse; conditions: 5 days, SRB
CRL-2813 = experiment: Cell growth assay (sulforhodamine B), CRL-2813 cells; type: cell-based, human; conditions: 5 days, SRB
Outline: (§1)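 Cells were exposed for 5 days to 0.54-6 µM compound, then TCA-fixed and stained with sulforhodamine B, read at 490 nm. Growth was expressed as %T/C with time-zero correction. IC50 is the concentration giving 50% growth inhibition.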

CRL-2351 = experiment: Cell growth assay (sulforhodamine B), CRL-2351 cells; type: cell-based, human; conditions: 5 days, SRB
Outline: as §1

CHOP mRNA = experiment: Real time PCR of CHOP mRNA expression, KLN cells; type: cell-based, mouse; conditions: for fold induction at 20 µM / CHOP PCR (μM) KLN: at 20 uM
Protocol: In order to validate the compounds described herein as modifiers of the abundance of the eIF2•GTP•Met-tRNAi ternary complex, the effects of the compounds on endogenous cellular markers of the ternary complex were determined. For example, reducing amount of the ternary complex increases translation of ATF-4, which results in elevated expression of CHOP mRNA and protein. Therefore, expression of endogenous CHOP mRNA and CHOP protein in KLN-tTA/pBISA-DL^(ATF-4) cells were utilized as secondary assays to validate the compounds as modifiers of the eIF2•GTP•Met-tRNAi ternary complex.
Total RNA was extracted with TaqMan Gene Expression Cells-to-Ct™ Kit (Applied Biosystems, Branchburg, N.J.) and DNAse I treated according to manufacturer's recommendations. 1-Step Real-time PCR was performed on a Bio-Rad iCycler IQ5 system by using B-R 1-Step SYBR Green qRT-PCR Kit (Quanta BioSciences, Gaithersburg, Md.) according to manufacturer's specifications. The thermal cycler conditions were as follows: 10 minutes at 50° C., hold for 5 minutes at 95° C., followed by 2-step PCR for 45 cycles of 95° C. for 15 seconds followed by 60° C. for 30 seconds. All PCRs were performed in triplicate in at least two independent PCR runs. Mean values of these repeated measurements were used for calculation. To calibrate the results, all the transcript quantities were normalized to 18S rRNA (18S ribosomal RNA-like mRNA in mouse). The following primers were used in real-time PCR reactions.
The effects of these compounds on the ternary complex assay and the expression of CHOP mRNA was assayed in adherent mouse (KLN) and human solid tumors cells (CRL-2351 and CRL-2813).

[1] = system: eIF2•GTP•Met-tRNAi ternary complex; experiment: Ternary complex assay (ATF-4 assay), dual luciferase firefly/renilla ratio; type: cell-based, mouse; conditions: for maximal fold induction at 40 µM: read-out: ATF-4 Xmax @ 40 μM
Outline: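 Stable KLN cancer cells expressing tTA carry a bidirectional reporter in which firefly luciferase sits behind the ATF-4 5′UTR and renilla luciferase behind a plasmid-derived 5′UTR only. Lysates were read by Dual-Glo luciferase assay, and the output is the firefly/renilla signal ratio.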

[2] = Mus musculus, read-out: ATF-4 Xmax

SMILES | IC50 (KLN; Mus musculus, 120 h) [µM] | IC50 (CRL-2813; Homo sapiens, CRL2813, 120 h) [µM] | IC50 (CRL-2351; Homo sapiens, 120 h) [µM] | maximal fold induction at 40 µM ([1]; Mus musculus, at 40 uM) | maximal fold induction at 80 µM [1, 2] | also measured
CC(C)(C)c1ccc(OCCN2CCCC2)c(C2(c3cc(C(C)(C)C)ccc3OCCN3CCCC3)C(=O)Nc3ccccc32)c1 [HY191] | 3.5 ± 1.2 | 0.8 ± 0.1 | 0.65 ± 0.1 | – | – | fold induction at 5 µM (CHOP mRNA; Mus musculus, at 5 uM): 8.5; maximal fold induction at 5 µM ([1]; Mus musculus, cell prints 5 (uM), read-out: ATF-4 Xmax): 13.9 ± 0.97
CN1CCN(CCOc2ccc(C(C)(C)C)cc2C2(c3cc(C(C)(C)C)ccc3OCCN3CCN(C)CC3)C(=O)N(CCN3CCNCC3)c3ccccc32)CC1 [HY313] | 9.3 ± 3.2 | > 20 | 0.6 ± 0.1 | – | – | fold induction at 10 µM (CHOP mRNA; Mus musculus, at 10 (uM)): 6.73
CCN(CC)CCOc1ccc(C(C)(C)C)cc1C1(c2cc(C(C)(C)C)ccc2O)C(=O)Nc2ccccc21 (centres unmarked) [HY096] | 0.8 ± 0.4 | 1.5 ± 0.6 | 0.6 ± 0.1 | – | – | fold induction at 20 µM (CHOP mRNA; Mus musculus): 12.4; maximal fold induction at 20 µM [1, 2]: 16.7 ± 3.24
COCCOc1ccc(C(C)(C)C)cc1C1(c2cc(C(C)(C)C)ccc2O)C(=O)Nc2ccccc21 (centres unmarked) [HY081] | > 20 | 0.9 ± 0.1 | 3.9 ± 2 | 1.21 ± 0.16 | – | fold induction at 40 µM (CHOP mRNA; Mus musculus): 1.78
COCCOc1ccc(C(C)(C)C)cc1C1(c2cc(C(C)(C)C)ccc2OCCOC)C(=O)Nc2ccccc21 [HY181] | > 20 | 0.9 ± 0.1 | 3.9 ± 2 | – | 1.58 ± 0.07 | fold induction at 80 µM (CHOP mRNA; Mus musculus): 1.1
COc1ccc(C(C)C)cc1C1(c2cc(C(C)C)ccc2OC)C(=O)Nc2ccccc21 [HY061] | 11 ± 0.4 | 2.8 ± 0.2 | 3 | – | 2.9 ± 1.21 | fold induction at 40 µM (CHOP mRNA; Mus musculus): 4.23; fold induction at 80 µM (CHOP mRNA; Mus musculus): 12.3
CC(C)(C)c1ccc(O)c(C2(c3cc(C(C)(C)C)ccc3O)C(=O)N(CCN3CCOCC3)c3ccccc32)c1 [HY304] | 17.5 ± 1.3 | 1.6 ± 0.2 | 2.2 ± 0.2 | 4.31 ± 0.1 | – | fold induction at 40 µM (CHOP mRNA; Mus musculus): 9.1
CCN(CCO)CCOc1ccc(C(C)(C)C)cc1C1(c2cc(C(C)(C)C)ccc2OCCN2CCOCC2)C(=O)N(CCN(C)C)c2ccccc21 (centres unmarked) [HY306] | – | – | – | – | – | IC50 (KLN): 2.3 ± 1.6 µM; IC50 (CRL-2813): 2.7 ± 0.8 µM; IC50 (CRL-2351): 2.3 ± 0.6 µM; CHOP PCR (μM) KLN (CHOP mRNA): 8.11 at; ATF-4 Xmax @ 40 μM ([1]; at 40 uM): 19.2 ± 11.2 at 40 uM
CC(C)(C)c1ccc(O)c(C2(c3cc(C(C)(C)C)ccc3OCCBr)C(=O)N(CCBr)c3ccccc32)c1 (centres unmarked) [HY183] | > 20 | 1.1 ± 0.3 | 2.9 ± 1.2 | – | 1.9 ± 0.03 | fold induction at 80 µM (CHOP mRNA; Mus musculus): 1.83
COc1ccc(C2(c3cc(C(C)(C)C)ccc3O)C(=O)Nc3ccc(OC)cc32)cc1 (centres unmarked) [Sd184] | 14.3 ± 3 | 11.1 ± 1.1 | 2.9 ± 0.3 | 4 ± 0.36 | – | –
CN(C)CCOc1ccc(C(C)(C)C)cc1C1(c2cc(C(C)(C)C)ccc2OCCN(C)C)C(=O)Nc2ccccc21 [HY177] | > 20 | 12.5 ± 1 | 11.5 ± 1.5 | 1.34 ± 0.38 | – | –
COc1ccc(C2(c3cc(C(C)(C)C)ccc3O)C(=O)Nc3c2ccc(F)c3F)cc1 (centres unmarked) [Sd140] | 12.3 ± 2 | 3 | 0.95 ± 0.08 | 1.2 ± 0.46 | – | –
CC(=O)OCCOc1ccc(C(C)(C)C)cc1C1(c2cc(C(C)(C)C)ccc2O)C(=O)Nc2ccccc21 (centres unmarked) [HY084] | 11.4 ± 0.2 | 1.6 ± 0.4 | 2.7 ± 0.2 | 8.59 ± 1.67 | 11.4 ± 0.4 | –
CC(C)(C)c1ccc(C2(c3cc(C(C)(C)C)ccc3O)C(=O)Nc3ccccc32)c(OCCO)c1 (centres unmarked) [HY069] | > 20 | 2.9 ± 0.3 | 8.8 ± 0.9 | 10.7 ± 1 | – | –
CC(C)(C)c1ccc(O)c(C2(c3ccc(O)cc3)C(=O)Nc3ccccc32)c1 (centres unmarked) [Sd096] | 17.3 ± 1.8 | 4 ± 0.28 | 2 | 1.69 ± 0.6 | – | –
CC(C)Oc1ccc(O)c(C2(c3cc(OC(C)C)ccc3O)C(=O)Nc3ccccc32)c1 [HY037, 3,3-Bis(2-Hydroxy-5-Isopropoxyphenyl)Indolin-2-One] | > 20 | 5.6 ± 0.8 | 3.6 ± 0.6 | – | 2.79 ± 0.9 | –
COc1ccc(C2(c3cc(OC(C)C)ccc3OCCN3CCOCC3)C(=O)Nc3ccccc32)cc1 (centres unmarked) [Sd179, 3-(4-Methoxyphenyl)-3-{2-[2-(morpholin-4-yl)ethoxy]-5-(propan-2-yloxy)phenyl}-indol-2-one] | 11.8 ± 1 | 13.4 ± 0.7 | 8.6 ± 1 | – | 2.6 ± 0.14 | –
CC(C)(C)c1ccc(OCCN2CCNCC2)c(C2(c3cc(C(C)(C)C)ccc3OCCN3CCNCC3)C(=O)Nc3ccccc32)c1 [HY401] | 10.6 ± 0.9 | 1.5 ± 0.9 | 0.8 ± 0.1 | 11.4 ± 0.65 | – | –
CC(C)(C)c1ccc(O)c(C2(c3cc(C(C)(C)C)ccc3OCCN3CCOCC3)C(=O)N(CCN3CCOCC3)c3ccccc32)c1 (centres unmarked) [HY305] | 5 | 2 | 3.6 ± 0.7 | 3.61 ± 0.47 | 31.9 ± 9.27 | fold induction at 40 µM (CHOP mRNA; Mus musculus): 10
CC(C)(C)c1ccc(O)c(C2(c3ccccc3)C(=O)Nc3ccc(-c4ccc(N5CCOCC5)nc4)cc32)c1 (centres unmarked) [Sd231] | 13.3 ± 2.4 | 2.5 ± 1.5 | 1.8 ± 0.4 | – | 15.6 ± 0.4 | –
C#CCOc1ccc(C(C)(C)C)cc1C1(c2ccccc2)C(=O)Nc2ccccc21 (centres unmarked) [Sd123, 3-[5-tert-butyl-2-(prop-2-yn-1-yloxy)phenyl]-3-phenylindol-2-one] | > 20 | > 20 | 17.5 ± 2 | – | 5.1 ± 1.65 | –
CN(C)CCN1C(=O)C(c2cc(C(C)(C)C)ccc2CCCN2CCCC2)(c2cc(C(C)(C)C)ccc2OCCN2CCCC2)c2ccccc21 (centres unmarked) [HY198] | – | – | – | – | – | IC50 (KLN): 0.3 ± 0.1 µM; IC50 (CRL-2813): 0.8 ± 0.1 µM; IC50 (CRL-2351): 0.2 ± 0.05 µM; CHOP PCR (μM) KLN (CHOP mRNA): 3.76 at; ATF-4 Xmax ([1]; 2.5 uM): 11.82 ± 0.11/2.5 uM
O=C1Nc2ccccc2C1(c1cc(C2CCCC2)ccc1O)c1cc(C2CCCC2)ccc1O [HY051, 3,3-Bis(5-Cyclopentyl-2-Hydroxyphenyl)Indolin-2-One] | > 20 | 3.1 ± 0.2 | 5.3 ± 2.4 | – | – | fold induction at 20 µM (CHOP mRNA; Mus musculus): 13.8; maximal fold induction at 20 µM [1, 2]: 5.48 ± 0.3
CCCN1C(=O)C(c2cc(C(C)(C)C)ccc2O)(c2cc(C(C)(C)C)ccc2OCCN2CCCC2)c2ccccc21 (centres unmarked) [HY098] | 0.5 ± 0.2 | 0.9 ± 0.2 | 0.3 ± 0.1 | – | – | maximal fold induction at 10 µM ([1]; Mus musculus, 10 uM, read-out: ATF-4 Xmax): 8.7 ± 1.2
